What was measured:
[1] = test system: 631M/RPPM mouse SCLC cells; experiment: CXCL10 ELISA of conditioned media, STING agonists +/- heparins; format: cell-based; details: for interaction between heparin and STING agonist (CXCL10 ELISA): 24 hours, p<0.0001 by 2-WAY ANOVA (FIG. 3C); for interaction between heparin and STING agonist on the amount of CXCL10 in the media: +/- 1 μg/mL heparin, 1 or 10 μg/mL cGAMP, 50 μM ADU, 0.2 mg/ml CMA, 24 hours (FIG. 3A)
Description: (§1) 1 mL of conditioned media from each treatment plate was collected after 24 hr culture unless otherwise specified. The collected media was centrifuged at 1400 RPM for 3 minutes to remove any cellular debris before use in the ELISA. Values represent the average of at least two independent biological replicates.

[2] = test system: BEN-MEN-1 meningioma cells; experiment: CXCL10 ELISA of conditioned media, ADU S-100 dose and time course +/- heparin; format: cell-based; details: 50 μg/mL and 100 μg/mL ADU-S100, heparin 10 μg/mL, 24 hours
Description: FIGS. 3A to 3B include plots showing that heparin dose-dependently enhances STING agonist effects across compounds. […] FIG. 3D includes a plot of showing the time course data for BenMen 1 cells with treatment for 3 and 6 days. The data reflects 24 hours treatment prior to collection of conditioned media for CXCL10 ELISA FIG. 3E includes plots showing RPPM mouse SCLC cells treated with 1 μg/mL 2,3-cGAMP and 1 μg/mL unfractionated heparin, low-molecular weight heparin (LMWH), heparin pentasaccharide fondaparinux, 6-desulfated heparin, chondroitin sulfate (CS)+/−the Janus kinase/signal transducers and activators of transcription (JAK/STAT) inhibitor ruxolitinib (ruxo 1 μg/mL) for 24 hours prior to CXCL10 ELISA. H69M human SCLC cells treated with 10 μg/mL 2,3-cGAMP+/−heparin 10 μg/mL or desulfated heparins 2-O desulfated (2DES), N-desulfated (NDES), and 6-O desulfated (6DES) 24 hours prior to CXCL10 ELISA. All panels reflect 24 hours treatment prior to collection of conditioned media for CXCL10 ELISA.
A 24-hour dose response study was also conducted on BEN-MEN-1 meningioma cells (hereafter “BenMen 1 cells”) and RPPM mouse SCLC cells. BenMen 1 cells were treated with various doses of ADU S-100 (0, 10, 20, 30, 50, and 100 μg/mL) either in the presence or absence of heparin (10 μg/mL). […]

[3] = test system: BenMen 1 cells; RPPM mouse SCLC and MS428 human mesothelioma cell lines; experiment: STING pathway western blot and CXCL10 ELISA with TBK1 or JAK/STAT inhibitor; format: cell-based; details: MRT TBK1 inhibitor 1 μM or 5 μM; ruxolitinib 1 μM
Description: FIG. 4A includes immunofluorescent images of fixed hLFB cells after 24 hours of treatment with cyanine-5 (Cy5) labeled 2,3-cGAMP 1 μg/mL+/−heparin 1 μg/mL. The staining represents actin phalloidin, DAPI (4′,6-diamidino-2-phenylindole), and Cy5-labeled cGAMP. FIG. 4B includes a western blot for STING pathway components in BEN-MEN-1 meningioma cells treated for 72 hours with 50 μM ADU+/−heparin 10 μg/mL and MRT TANK-binding kinase-1 (TBK1) inhibitor 5 μM. FIG. 4C includes plots showing CXCL10 ELISA after 24 hours treatment with 2,3-cGAMP (1 μg/mL) or ADU S-100 (50 μM unless otherwise indicated)+/−heparin (1 μg/mL in RPPM or 10 μg/mL in MS428), MRT TBK1 inhibitor 1 μM, or ruxolitinib JAK/STAT inhibitor (“ruxo”; ruxolitinib) 1 μM in RPPM mouse SCLC and MS428 human mesothelioma cell lines. FIG. 4D includes a plot showing the qPCR for Programmed death-ligand 1 (PD-L1) after 24 hours treatment 50 μM ADU+/−heparin 10 μg/mL and MRT TBK1 inhibitor in BEN-MEN-1 meningioma cells. ANOVA p<0.001 for all graphs. *p<0.05 ****p<0.0001 by Bonferroni corrected pairwise comparison.
The serine/threonine protein kinase, TBK1, is a critical regulator in innate immune signaling pathways that lead to the induction of type I interferon (IFN) and interferon-stimulated genes (ISGs). Dysregulation of TBK1 activity is often associated with autoimmune diseases and cancer. […]

[4] = test system: H196 SCLC and MS428 meningioma cells; experiment: Luminex cytokine array; format: cell-based, human; details: 5 μM MRT TBK1 inhibitor
Description: FIGS. 19A to 19B includes diagrams showing that heparin alters the release of multiple cytokines after STING agonist treatment. […] L2FC=LOG2 fold change.
The influence of heparin (with and without a STING agonist) on IL-6 and IL-8 levels was examined. […] This effect was reversed by MRT TBK1 inhibitor.
Multiplex assays were performed utilizing the Human Cytokine/Chemokine Maganetic Bead Panel (Cat. #HCYTMAG-60K-PX30) on a Luminex MAGPIX system (Merck Millipore). Conditioned media concentrations (pg/ml) for each cytokine were derived from parameter curve fitting models. Fold changes relative to the corresponding control were calculated and plotted as log 2FC.

[5] = test system: B16F10 mouse melanoma cells; Lewis Lung Carcinoma (LLC) mouse non-small-cell lung cancer cells; experiment: CXCL10 ELISA of conditioned media, interferons +/- heparin; format: cell-based; details: interferon 5 ng/mL +/- heparin 1 μg/mL, 24 hours
Description: as §1

[6] = test system: Human lung fibroblasts (hLFB); experiment: CXCL10 qPCR, 2,3-cGAMP +/- heparin; format: cell-based; details: 2,3-cGAMP 1 μg/mL, 24 hours
Description: FIG. 2 includes plots showing that heparin enhances STING agonist activity. FIG. 2A includes plots showing human lung fibroblasts (hLFB) and H69-mesenchymal (H69M) small cell lung cancer (SCLC) cells treated with 2,3-cGAMP 1 μg/mL+/−heparin 1 μg/mL for 24 hours prior to CXCL10 qPCR and collection of conditioned media for C—X—C motif chemokine 10 (CXCL10) ELISA (enzyme-linked immunosorbent assay). […] THP1=differentiated macrophages. hLFB=human lung fibroblasts. MEF=mouse embryonic fibroblasts. HUE=human umbilical endothelial cells. ANOVA p<0.001 for all figures. *p<0.05 ****p<0.0001 by Bonferroni corrected pairwise comparison.
Also, Human lung fibroblasts (hLFB) were treated with 2,3-cGAMP 1 μg/mL (hereafter referred to as “cGAMP)+/−heparin 1 μg/mL for 24 hours prior to CXCL10 qPCR and collection of conditioned media for CXCL10 ELISA (FIG. 2A).
RNA extraction was performed using the RNeasy Mini Kit (Qiagen, Cat. #74106). RNA samples (1000 ng) were reverse-transcribed into cDNA using Superscript® First-Strand Synthesis SuperMix (Thermo Fisher Scientific, Cat. #1683483). Quantitative real-time PCR was then performed using Power SYBR Green PCR Master Mix (Thermo Fisher Scientific, Cat. #4367659). The sequences of the primers used for qRT-PCR were obtained from previously published literature. Error bars represent technical replicates of each experiment.

Nc1ncnc2c1ncn2[C@@H]1O[C@@H]2CO[P@](=O)(S)O[C@@H]3C(O)[C@@H](CO[P@@](=O)(S)O[C@H]2[C@H]1O)O[C@H]3n1cnc2c(N)ncnc21 (stereo partly drawn) [ADU-S100]
interaction between heparin and STING agonist (CXCL10 ELISA) [1]: significant interaction
interaction between heparin and STING agonist on the amount of CXCL10 in the media [1]: significant interaction
STING activity (CXCL10 concentration) in the presence vs absence of heparin [2]: significantly higher STING activity

O=C(NCCCNc1nc(Nc2cccc(CN3CCOCC3)c2)ncc1C1CC1)C1CCC1 [MRT TBK1 inhibitor, MRT67307]
STING activity after addition of inhibitor to heparin and ADU [3]: reduced the STING activity
effect of heparin plus ADU on cytokines after TBK1 inhibitor [4]: reversed

IFNg: interferon gamma (R&D systems)
amount of CXCL10 in the media with heparin compared to interferon alone [5]: not seen

cyclic GMP-AMP [cGAMP]
interaction between heparin and STING agonist (CXCL10 ELISA) [1]: significant interaction
interaction between heparin and STING agonist on the amount of CXCL10 in the media [1]: significant interaction
STING activity (CXCL10 expression, qPCR), cGAMP in the absence of heparin [6]: negligible STING activity
